The subject of one assay is cholesterol absorption. In words: animal or person. The class given is in vivo, normal rat.
The target of assay [1] is cholesterol ester hydrolase (Homo sapiens, UniProt P19835). Briefly: biochemical.
Setting [2] is: Rattus norvegicus, po, 6 h, read-out: % Decrease ^14 C Chol. Absorption at 6 hr in normal rat.

Where two headings read alike, the source gives them in different places.

cholesterol ester hydrolase, sequence (P19835 21-753): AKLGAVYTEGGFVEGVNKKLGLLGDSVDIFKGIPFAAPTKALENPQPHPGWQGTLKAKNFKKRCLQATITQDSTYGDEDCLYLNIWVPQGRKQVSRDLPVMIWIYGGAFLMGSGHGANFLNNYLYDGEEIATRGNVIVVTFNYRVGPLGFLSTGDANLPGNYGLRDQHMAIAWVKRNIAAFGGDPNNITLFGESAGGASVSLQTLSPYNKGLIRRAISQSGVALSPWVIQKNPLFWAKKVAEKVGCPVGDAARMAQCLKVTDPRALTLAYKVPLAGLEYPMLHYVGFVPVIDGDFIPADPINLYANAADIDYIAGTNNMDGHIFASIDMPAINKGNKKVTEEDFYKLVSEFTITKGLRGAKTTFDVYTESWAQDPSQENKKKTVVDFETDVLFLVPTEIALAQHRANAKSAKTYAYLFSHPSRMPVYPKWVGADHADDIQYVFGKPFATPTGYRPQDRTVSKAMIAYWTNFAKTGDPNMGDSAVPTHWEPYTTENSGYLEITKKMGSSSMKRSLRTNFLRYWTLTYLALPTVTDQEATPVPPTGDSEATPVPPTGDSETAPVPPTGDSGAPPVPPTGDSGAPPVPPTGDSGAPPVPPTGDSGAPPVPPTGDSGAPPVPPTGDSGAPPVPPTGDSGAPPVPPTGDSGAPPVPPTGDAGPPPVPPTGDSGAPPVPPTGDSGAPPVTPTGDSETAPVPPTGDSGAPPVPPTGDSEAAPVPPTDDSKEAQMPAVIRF

As to `CCCCCCCCNC(=O)ON=C(C1=CC(=O)C(C)(C)O1)c1ccccc1` [Example 1, 2,2-Dimethyl-5-[[[[(octylamino)carbonyl]oxy]imino]phenylmethyl]-3(2H)-furanone], the inhibition in vivo at 100 mg/kg with cholesterol absorption (setting [2]) was determined as 39%. The compound further yielded an IC50 in assay [1] of 1900 nM. Take `CCCCCCCCCCCCNC(=O)ON=C(C1=CC(=O)C(C)(C)O1)c1ccccc1` [Example 2, 2,2-Dimethyl-5-[[[[(dodecylamino)carbonyl]oxy]imino]phenylmethyl]-3(2H)-furanone]: the inhibition in vivo at 100 mg/kg with cholesterol absorption (setting [2]) turned out to be 76%. Besides, in assay [1], the IC50 was determined as 570 nM. Take `CC1(C)CCC(NC(=O)ON=C(C2=CC(=O)C(C)(C)O2)c2ccccc2)CC1` [Example 3, 2,2-Dimethyl-5-[[[[[(4,4dimethylcyclohexyl)amino]carbonyl]oxy]imino]phenylmethyl]-3(2H)-furanone]: the inhibition in vivo at 100 mg/kg with cholesterol absorption (setting [2]) was 44%. In assay [1], this compound gave a half-maximal inhibitory concentration (IC50) of 100 nM. With `CCCCCCCC/C=C\CCCCCCCCNC(=O)ON=C(C1=CC(=O)C(C)(C)O1)c1ccccc1` [Example 4, 2,2-Dimethyl-5-[[[[[(Z)-9-octadecenylamino]carbonyl]oxy]imino]phenylmethyl]-3(2H)-furanone], in the assay with cholesterol absorption (setting [2]), the inhibition in vivo at 100 mg/kg came out at 74%. The IC50 in assay [1] (read-out: IC50 against CEH) stood at 5400 nM. Consider `CCCCCCCC/C=C/CCCCCCCCCNC(=O)ON=C(C1=CC(=O)C(C)(C)O1)c1ccccc1` [Example 5, 2,2-Dimethyl-5-[[[[[(E)-10-nonadecenylamino]carbonyl]oxy]imino]phenylmethyl]-3(2H)-furanone], for which, in the assay on cholesterol absorption (setting [2]), the inhibition in vivo at 25 mg/kg stood at 39%. Moreover, the IC50 in assay [1] amounted to 25000 nM. Consider `CCCCC/C=C/C/C=C/CCCCCCCCNC(=O)ON=C(C1=CC(=O)C(C)(C)O1)c1ccccc1` [Example 6, 2,2-Dimethyl-5-[[[[[(E,E)-9, 12-octadecadienylamino]carbonyl]oxy]imino]phenylmethyl]-3(2H)-furanone], for which the inhibition in vivo at 25 mg/kg in the assay on cholesterol absorption (setting [2]) amounted to 50%. The IC50 in assay [1] amounted to 2700 nM.

Turning to `CCCCCCCCNC(=O)ON=C(C1=CC(=O)C(C)(C2CCCCC2)O1)c1ccccc1` (centres unmarked) [Example 7, 2-Cyclohexyl-2-methyl-5-[[[[(octylamino)carbonyl]oxy]imino]phenylmethyl]-3(2H)-furanone], the inhibition in vivo at 100 mg/kg in the assay with cholesterol absorption (setting [2]) was 47%. Moreover, the half-inhibitory concentration (IC50) in assay [1] turned out to be 1900 nM. In the same order, the values of `CCCCCCCCNC(=O)ON=C(C1=CC(=O)C(C)(c2ccccc2)O1)c1ccccc1` (centres unmarked) [Example 8] are 46% and 130 nM.

For `CCCCCCCCNC(=O)ON=C(C1=CC(=O)C(C)(c2ccc(Cl)cc2)O1)c1ccccc1` (centres unmarked) [Example 9, 2-(4-Chlorophenyl)-2-methyl-5-[[[[(octylamino)carbonyl]oxy]imino]phenylmethyl]-3(2H)-furanone], in the assay with cholesterol absorption (setting [2]), the inhibition in vivo at 100 mg/kg turned out to be 62%. The IC50 in assay [1] was 2640 nM. The matching figures for `CCCCCCCCNC(=O)ON=C(C1=CC(=O)C(C)(c2ccc(C(C)(C)C)cc2)O1)c1ccccc1` (centres unmarked) [Example 10, 2-[4-(1,1-Dimethylethyl)phenyl]-2-methyl-5-[[[[(octylamino)carbonyl]oxy]imino]phenylmethyl]-3(2H)-furanone]: 46% and 12700 nM. In the same order, the values of `CCCCCCCCNC(=O)ON=C(CCc1ccccc1)C1=CC(=O)C(C)(C)O1` [Example 11] are 57% and 1500 nM. In the case of `CCCCCCCCCCCCNC(=O)ON=C(C1=C(Br)C(=O)C(C)(C)O1)c1ccccc1` [Example 12, 2,2-Dimethyl-4-bromo-5-[[[[(dodecylamino)carbonyl]oxy]imino]phenylmethyl]3(2H)-furanone], the inhibition in vivo at 100 mg/kg in the assay with cholesterol absorption (setting [2]) came to 69%. The same compound showed an IC50 in assay [1] of 2270 nM. With `CCCCCCCCCCCCNC(=O)ON=C(C1=CC(=O)C(C)(C)O1)c1ccc(Cl)cc1` [Example 13], in the assay with cholesterol absorption (setting [2]), the inhibition in vivo at 100 mg/kg was found to be 63%. In assay [1], this compound gave an IC50 of 10000 nM. In the same order, the values of `O=C(NC1CCCCC1)ON=C(c1ccccc1)c1ccccn1` [Example 14, Phenyl(2-pyridinyl)methanone O-[(cyclohexylamino)carbonyl]oxime] are 44% and 1400 nM. Turning to `CCCCCCCCNC(=O)ON=C(c1ccccn1)c1ccccn1` [Example 16, Di(2-pyridinyl)methanone O-[(octylamino)carbonyl]oxime], the inhibition in vivo at 50 mg/kg in the assay on cholesterol absorption (setting [2]) stood at 39%. Further, in assay [1], the IC50 was 2770 nM.

On to `CCCCCCCCNC(=O)ON=C(c1ccc(F)cc1)c1ccccn1` [Example 17, (4-Fluorophenyl)(2-pyridinyl)methanone O-[(octylamino)carbonyl]oxime], for which the inhibition in vivo at 50 mg/kg in the assay with cholesterol absorption (setting [2]) amounted to 57%. The compound also showed a half-inhibitory concentration (IC50) in assay [1] of 440 nM.

Turning to `CCCCCCCCNC(=O)ON=C(c1ccc(OC)cc1)c1ccccn1` [Example 18, (4-Methoxyphenyl)(2-pyridinyl)methanone O-[(octylamino)carbonyl]oxime], the inhibition in vivo at 65 mg/kg with cholesterol absorption (setting [2]) was 45%. This compound came in with an IC50 in assay [1] of 2100 nM. Take `CCCCNC(=O)ON=C(c1ccc(N(C)C)cc1)c1ccccn1` [Example 20]: the “% Decrease ^14 C Chol. Absorption at 6 hr in normal rat” value with cholesterol absorption (rat, in vivo) was determined as 51%.

The IC50 is the concentration that inhibits the measured activity by half.

These data come from patent US5438056A (priority 1993, dated 1995).
